Laboratory results published in patent publication US20230286969A1, “AROMATIC SPIRO RING AMIDE DERIVATIVES FOR THE TREATMENT AND PROPHYLAXIS OF HEPATITIS B VIRUS INFECTION” (Hoffmann-La Roche Inc., priority 2020, published 2023).

Experiments:
Type in all cases: cell-based
[1] = test system: HBsAg; assay: PHH HBV natural infection assay, HBsAg (alphalisa); settings: read-out: HBsAg IC50; HBV-infected primary human hepatocytes, supernatant, compound medium refreshed two times with 72-hour interval
Summary of the method: (§1)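 Primary human hepatocytes infected with HBV at 200 GE/cell plus 4% PEG8000 for 24 h, then sandwich-cultured 72 h. Compounds were added in two refreshes 72 h apart. HBsAg and HBeAg in supernatant measured by AlphaLISA.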

[2] = test system: HBeAg; assay: PHH HBV natural infection assay, HBeAg (alphalisa); settings: read-out: HbeAg IC50; HBV-infected primary human hepatocytes, supernatant, compound medium refreshed two times with 72-hour interval
Summary of the method: as §1

[3] = test system: primary human hepatocyte (PHH); assay: PHH natural infection assay, cytotoxicity (Cell Counting Kit-8); settings: HBV-infected primary human hepatocytes, CCK8, end of treatment
Summary of the method: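 HBV-infected at 200 GE/cell with 4% PEG8000 for 24 h, then sandwich-cultured 72 h in 1% DMSO and 0.25 mg/mL matrix gel. Compound added twice at 72-h intervals; supernatant HBsAg and HBeAg read by AlphaLISA, HBV DNA by quantitative fluorescence PCR kit. Cytotoxicity by CCK-8.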

| Structure (SMILES) | IC50 [1] [nM] | IC50 [2] [nM] | CC50 [3] [nM] |
| --- | --- | --- | --- |
| NS(=O)(=O)c1ccc(C(=O)NC2CC3(C2)CC(c2nc4cc(Cl)ccc4o2)C3)o1 (single isomer, unassigned) [Example 29-b, N-[6-(5-chloro-1,3-benzoxazol-2-yl)spiro[3.3]heptan-2-yl]-5-sulfamoyl-furan-2-carboxamide] | 1550 | 909 | > 100000 |
| O=C(NC1CC2(C1)CC(c1nc3cc(Cl)cnc3o1)C2)c1ccc(S(=O)(=O)C2CC2)o1 (single isomer, unassigned) [Example 49-b, N-[6-(6-chlorooxazolo[5,4-b]pyridin-2-yl)spiro[3.3]heptan-2-yl]-5-cyclopropylsulfonyl-furan-2-carboxamide] | 647 | 626 | 91500 |
| N=S(=O)(c1ccc(C(=O)NC2CC3(C2)CC(c2nc4cc(Cl)ccc4o2)C3)o1)C1CC1 (single isomer, unassigned) [Example 53-a, N-[6-(5-chloro-1,3-benzoxazol-2-yl)spiro[3.3]heptan-2-yl]-5-(cyclopropylsulfonimidoyl)furan-2-carboxamide] | 1890 | 1270 | > 10000 |
| O=C(NC1CC2(C1)CC(c1nc3cc(Cl)ccc3o1)C2)c1ccc([S+]([O-])CC2CC2)o1 (single isomer, unassigned) [Example 19-d, N-[6-(5-chloro-1,3-benzoxazol-2-yl)spiro[3.3]heptan-2-yl]-5-(cyclopropylmethylsulfinyl)furan-2-carboxamide] | 2860 | 2500 | > 10000 |
